Assays:
barnyardgrass = experiment: Test A pre-/postemergence herbicide test; type: in vivo, Echinochloa crus-galli
In short: (§1)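 Pre: seeded sandy loam, directed soil spray, compound in non-phytotoxic solvent + surfactant. Post: 1–2-leaf plants (2–10 cm), sprayed to runoff. Greenhouse ~10 d; visual injury vs untreated, 0–100 scale.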

large crabgrass = experiment: Test A pre-/postemergence herbicide test; type: in vivo, Digitaria sanguinalis
In short: as §1

redroot pigweed = experiment: Test A pre-/postemergence herbicide test; type: in vivo, Amaranthus retroflexus
In short: as §1

bermudagrass = experiment: Test C pre-/postemergence herbicide test; type: in vivo, Cynodon dactylon
In short: (§2)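 Visual injury scores run from 0 (no effect) to 100 (complete control), assessed relative to untreated controls 12 to 14 days after treatment in the greenhouse. Chemicals were formulated in a non-phytotoxic solvent mixture with surfactant and applied to soil after planting or to emerged plants at the 1- to 4-leaf stage.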

woolly cupgrass = experiment: Test C pre-/postemergence herbicide test; type: in vivo, Eriochloa villosa; settings: for Cupgrass, Woolly plant response rating: 500 g ai/ha
In short: as §2

giant foxtail = experiment: Test C pre-/postemergence herbicide test; type: in vivo, Setaria faberi; settings: for Foxtail, Giant plant response rating: 500 g ai/ha
In short: as §2

goosegrass = experiment: Test C pre-/postemergence herbicide test; type: in vivo, Eleusine indica; settings: for Goosegrass plant response rating: 500 g ai/ha
In short: as §2

common ragweed = experiment: Test C pre-/postemergence herbicide test; type: in vivo, Ambrosia elatior; design: key to Plant response rating, Ragweed: 0 = no effect, 100 = complete control; settings: for Ragweed plant response rating: 500 g ai/ha
In short: as §2

[1] = test system: common (oilseed) sunflower; experiment: Test C pre-/postemergence herbicide test; type: in vivo, Helianthus annuus; settings: for Plant response rating (0 = no effect, 100 = complete control), Sunflower: 62 g ai/ha; for Plant response rating (0 = no effect, 100 = complete control), Sunflower / Plant response rating, Sunflower: preemergence
In short: as §2

[2] = test system: smallflower umbrella sedge; experiment: Test C flooded paddy test; type: in vivo, Cyperus difformis; settings: for Plant response rating, Sedge, Umbrella: visual rating after 12 to 14 days
[3] = Postemergence, 250 g ai/ha, 0 to 100 scale, 0 no effect, 100 complete control
[4] = Postemergence, 1000 g ai/ha, 0 to 100 scale, 0 no effect, 100 complete control
[5] = Preemergence, 1000 g ai/ha, visual rating, 0 to 100 scale (0 no effect, 100 complete control)
[6] = preemergence, 250 g ai/ha, visual injury, 0 to 100 scale (0 no effect, 100 complete control)
[7] = 125 g ai/ha, scale 0-100, preemergence
[8] = 250 g ai/ha, scale 0 to 100 (0 no effect, 100 complete control), visual, 12 to 14 days, preemergence
[9] = Postemergence, 125 g ai/ha, scale 0 to 100, 0 no effect, 100 complete control
[10] = Preemergence, 500 g ai/ha, scale 0 to 100, 0 no effect, 100 complete control
[11] = postemergence, 62 g ai/ha, scale 0 to 100
[12] = Postemergence, 250 g ai/ha, scale 0 to 100, 0 no effect, 100 complete control
[13] = Preemergence, scale 0 to 100, 0 no effect, 100 complete control
[14] = 62 g ai/ha, scale 0 to 100 (0 no effect, 100 complete control)
[15] = 125 g ai/ha, scale of 0 to 100, 0 is no effect, 100 is complete control
[16] = 500 g ai/ha, scale 0 to 100 (0 no effect, 100 complete control)
[17] = Postemergence, 500 g ai/ha, 0 to 100 scale, 0 no effect, 100 complete control
[18] = Postemergence, 2000 g ai/ha, 0 to 100 scale, 0 no effect, 100 complete control
[19] = Preemergence, 500 g ai/ha, visual rating, 0 to 100 scale (0 no effect, 100 complete control)
[20] = Preemergence, 2000 g ai/ha, 0 to 100 scale, 0 no effect, 100 complete control
[21] = 31 g ai/ha, preemergence, scale 0 to 100
[22] = 125 g ai/ha, scale 0 (no effect) to 100 (complete control), visual, 12 to 14 days, preemergence

## CCNC(=O)c1cccc(NC(=O)c2cc(C(C)(C)C)nn2CC(F)(F)F)c1 [Compound 31]
barnyardgrass; [3]
  Barnyardgrass plant response rating: 65
barnyardgrass; [4]
  Plant response rating, Barnyardgrass: 75
barnyardgrass; [5]
  Barnyardgrass plant response rating: 80
barnyardgrass; [6]
  Barnyardgrass plant response rating: 40
Large crabgrass; [3]
  Crabgrass, Large plant response rating: 30
Large crabgrass; [4]
  Plant response rating, Crabgrass, Large: 40
Large crabgrass; [5]
  Crabgrass, Large plant response rating: 45
Large crabgrass; [6]
  Crabgrass, Large plant response rating: 20
Redroot pigweed; [3]
  Pigweed plant response rating: 55
Redroot pigweed; [4]
  Plant response rating, Pigweed: 80
Redroot pigweed; [5]
  Pigweed plant response rating: 80
Redroot pigweed; [6]
  Pigweed plant response rating: 45
bermudagrass; 62 g ai/ha, preemergence
  Plant response rating (0 = no effect, 100 = complete control), Bermudagrass: 20
bermudagrass; [7]
  Plant response rating, Bermudagrass: 90
bermudagrass; [8]
  Plant response rating, Bermudagrass: 100
bermudagrass; Postemergence, 500 g ai/ha, scale 0 to 100
  Bermudagrass plant response rating: 40
bermudagrass; [9]
  Plant response rating, Bermudagrass: 20
bermudagrass; Postemergence, 250 g ai/ha, scale 0 to 100
  Bermudagrass plant response rating: 20
bermudagrass; [10]
  Bermudagrass plant response rating: 100
bermudagrass; [11]
  Plant response rating, Bermudagrass: 10
Woolly cupgrass; 62 g ai/ha, preemergence
  Plant response rating (0 = no effect, 100 = complete control), Cupgrass, Woolly: 0
Woolly cupgrass; [7]
  Plant response rating, Cupgrass, Woolly: 0
Woolly cupgrass; [8]
  Plant response rating, Cupgrass, Woolly: 30
Woolly cupgrass; Postemergence, scale 0 to 100
  Cupgrass, Woolly plant response rating: 60
Woolly cupgrass; [9]
  Plant response rating, Cupgrass, Woolly: 30
Woolly cupgrass; [12]
  Plant response rating, Cupgrass, Woolly: 40
Woolly cupgrass; [13]
  Cupgrass, Woolly plant response rating: 60
Woolly cupgrass; [11]
  Plant response rating, Cupgrass, Woolly: 30
Giant foxtail; 62 g ai/ha, preemergence
  Plant response rating (0 = no effect, 100 = complete control), Foxtail, Giant: 20
Giant foxtail; [7]
  Plant response rating, Foxtail, Giant: 30
Giant foxtail; [8]
  Plant response rating, Foxtail, Giant: 70
Giant foxtail; Postemergence, scale 0 to 100
  Foxtail, Giant plant response rating: 40
Giant foxtail; [9]
  Plant response rating, Foxtail, Giant: 30
Giant foxtail; [12]
  Plant response rating, Foxtail, Giant: 30
Giant foxtail; [13]
  Foxtail, Giant plant response rating: 100
Giant foxtail; [11]
  Plant response rating, Foxtail, Giant: 20
goosegrass; 62 g ai/ha, preemergence
  Plant response rating (0 = no effect, 100 = complete control), Goosegrass: 30
goosegrass; [7]
  Plant response rating, Goosegrass: 30
goosegrass; [8]
  Plant response rating, Goosegrass: 40
goosegrass; Postemergence, scale 0 to 100
  Goosegrass plant response rating: 40
goosegrass; [9]
  Plant response rating, Goosegrass: 30
goosegrass; [12]
  Plant response rating, Goosegrass: 40
goosegrass; [13]
  Goosegrass plant response rating: 90
goosegrass; [11]
  Plant response rating, Goosegrass: 30
Common ragweed; 62 g ai/ha, preemergence
  Plant response rating (0 = no effect, 100 = complete control), Ragweed: 0
Common ragweed; [8]
  Plant response rating, Ragweed: 60
Common ragweed; Postemergence, scale 0 to 100
  Ragweed plant response rating: 70
Common ragweed; [12]
  Plant response rating, Ragweed: 40
Common ragweed; [13]
  Ragweed plant response rating: 80
Common ragweed; postemergence, 125 g ai/ha, scale 0 to 100
  Plant response rating, Ragweed: 40
Common ragweed; [11]
  Plant response rating, Ragweed: 30
[1]
  Plant response rating (0 = no effect, 100 = complete control), Sunflower: 0
[1]; 250 g ai/ha, scale 0 to 100 (0 no effect, 100 complete control), visual, 12 to 14 days
  Plant response rating, Sunflower: 20
[1]; [10]
  Sunflower plant response rating: 20
[2]; [14]
  Sedge, Umbrella plant response rating: 0
[2]; [15]
  Sedge, Umbrella plant response rating: 35
[2]; 250 g ai/ha, scale 0 to 100 (0 no effect, 100 complete control)
  Plant response rating, Sedge, Umbrella: 40
[2]; [16]
  Plant response rating, Sedge, Umbrella: 55

## CCOC(=O)c1cc(NC(=O)c2cc(C(C)(C)C)nn2CC)ccc1OCC [Compound 95]
barnyardgrass; [17]
  Barnyardgrass plant response rating: 30
barnyardgrass; [18]
  Plant response rating, Barnyardgrass: 55
barnyardgrass; [19]
  Barnyardgrass plant response rating: 30
barnyardgrass; [20]
  Barnyardgrass plant response rating: 50
Large crabgrass; [17]
  Crabgrass, Large plant response rating: 25
Large crabgrass; [18]
  Plant response rating, Crabgrass, Large: 60
Large crabgrass; [19]
  Crabgrass, Large plant response rating: 50
Large crabgrass; [20]
  Crabgrass, Large plant response rating: 90
Redroot pigweed; [17]
  Pigweed plant response rating: 85
Redroot pigweed; [18]
  Plant response rating, Pigweed: 100
Redroot pigweed; [19]
  Pigweed plant response rating: 100
Redroot pigweed; [20]
  Pigweed plant response rating: 100
bermudagrass; [21]
  Plant response rating, Bermudagrass: 10
bermudagrass; 62 g ai/ha, preemergence
  Plant response rating (0 = no effect, 100 = complete control), Bermudagrass: 70
bermudagrass; [22]
  Plant response rating, Bermudagrass: 100
bermudagrass; [8]
  Plant response rating, Bermudagrass: 100
Woolly cupgrass; [21]
  Plant response rating, Cupgrass, Woolly: 0
Woolly cupgrass; 62 g ai/ha, preemergence
  Plant response rating (0 = no effect, 100 = complete control), Cupgrass, Woolly: 5
Woolly cupgrass; [22]
  Plant response rating, Cupgrass, Woolly: 10
Woolly cupgrass; [8]
  Plant response rating, Cupgrass, Woolly: 30
Giant foxtail; [21]
  Plant response rating, Foxtail, Giant: 0
Giant foxtail; 62 g ai/ha, preemergence
  Plant response rating (0 = no effect, 100 = complete control), Foxtail, Giant: 60
Giant foxtail; [22]
  Plant response rating, Foxtail, Giant: 100
Giant foxtail; [8]
  Plant response rating, Foxtail, Giant: 100
goosegrass; [21]
  Plant response rating, Goosegrass: 0
goosegrass; 62 g ai/ha, preemergence
  Plant response rating (0 = no effect, 100 = complete control), Goosegrass: 0
goosegrass; [22]
  Plant response rating, Goosegrass: 50
Common ragweed; [21]
  Plant response rating, Ragweed: 10
Common ragweed; 62 g ai/ha, preemergence
  Plant response rating (0 = no effect, 100 = complete control), Ragweed: 50
Common ragweed; [22]
  Plant response rating, Ragweed: 80
[1]; 31 g ai/ha, scale 0 to 100
  Plant response rating, Sunflower: 0
[1]
  Plant response rating (0 = no effect, 100 = complete control), Sunflower: 0
[1]; 125 g ai/ha, scale 0 (no effect) to 100 (complete control), visual, 12 to 14 days
  Plant response rating, Sunflower: 0
[2]; [14]
  Sedge, Umbrella plant response rating: 85
[2]; [15]
  Sedge, Umbrella plant response rating: 90
[2]; 250 g ai/ha, scale of 0 to 100, 0 is no effect, 100 is complete control
  Sedge, Umbrella plant response rating: 95
[2]; [16]
  Plant response rating, Sedge, Umbrella: 95
